Experimental data taken from ChEMBL document CHEMBL1201862, “PubChem BioAssay data set” (2004).
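Exposure lasted 48 hours, with cells grown in 96-well plates and compounds tested at five concentrations. The concentration for 50% growth inhibition is given as GI50.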 Active and inactive are the calls of the source. Cut-off read from the data, not from the text of the source: active = GI50 up to about 1.1 µM and inactive = higher.

Key:
Assay in all cases: DTP human tumour cell line panel, 48 h
A498 = test system: A498
CAKI-1 = test system: CAKI-1
CCRF-CEM = test system: CCRF-CEM
HCT-15 = test system: HCT-15
HL-60 = test system: HL-60
IGROV-1 = test system: IGROV-1
K562 = test system: K562
LOX IMVI = test system: LOX IMVI
MDA-MB-231 = test system: MDA-MB-231
MOLT-4 = test system: MOLT-4
Malme-3M = test system: Malme-3M
NCI-H226 = test system: NCI-H226
OVCAR-3 = test system: OVCAR-3
OVCAR-5 = test system: OVCAR-5
SNB-75 = test system: SNB-75
SR = test system: SR
SW-620 = test system: SW-620
T47D = test system: T47D
UACC-257 = test system: UACC-257
UO-31 = test system: UO-31

SMILES | GI50 (A498) | GI50 (CAKI-1) | GI50 (CCRF-CEM) | GI50 (HCT-15) | GI50 (HL-60) | GI50 (IGROV-1) | GI50 (K562) | GI50 (LOX IMVI) | GI50 (MDA-MB-231) | GI50 (MOLT-4) | GI50 (Malme-3M) | GI50 (NCI-H226) | GI50 (OVCAR-3) | GI50 (OVCAR-5) | GI50 (SNB-75) | GI50 (SR) | GI50 (SW-620) | GI50 (T47D) | GI50 (UACC-257) | GI50 (UO-31)
CC[C@@]1(O)C(=O)OCc2c1cc1n(c2=O)Cc2c-1nc1ccccc1c2/C=N/NC(=O)C[N+](C)(C)C | 7.76 µM (inactive) | 0.578 µM (active) | 0.123 µM (active) | 14 µM | 0.668 µM (active) | 38.8 µM (inactive) | 2.86 µM (inactive) | 0.824 µM (active) | > 100 µM (inactive) | 0.207 µM (active) | 16.7 µM (inactive) | 0.802 µM (active) | 38.3 µM (inactive) | 30.4 µM (inactive) | 0.525 µM (active) | 0.0391 µM (active) | 4.99 µM (inactive) | 0.239 µM (active) | 12.7 µM (inactive) | 0.944 µM (active)
COc1cc(Oc2nc3ccccc3nc2C(=O)O)cc(OC)c1OC | > 100 µM (inactive) | > 100 µM (inactive) | > 100 µM (inactive) | > 100 µM | > 100 µM (inactive) | > 100 µM (inactive) | > 100 µM (inactive) | > 100 µM (inactive) | > 100 µM (inactive) | > 100 µM (inactive) | > 100 µM (inactive) | > 100 µM (inactive) | > 100 µM (inactive) | > 100 µM (inactive) | > 100 µM (inactive) | > 100 µM (inactive) | > 100 µM (inactive) | > 100 µM (inactive) | > 100 µM (inactive) | > 100 µM (inactive)
CC(=O)c1c2c(cc3c1CC1(C3)Cc3ccc4c(c3C1=O)CCC4)CCC2 (stereo not drawn) | > 100 µM (inactive) | 14.9 µM (inactive) | 19.3 µM (inactive) | 16.1 µM | 3.58 µM (inactive) | 87.3 µM (inactive) | 6.58 µM (inactive) | 14.8 µM (inactive) | 24.7 µM (inactive) | 22.3 µM (inactive) | 30.6 µM (inactive) | > 100 µM (inactive) | > 100 µM (inactive) | > 100 µM (inactive) | 16.9 µM (inactive) | 4.61 µM (inactive) | 32.7 µM (inactive) | 9.73 µM (inactive) | 2.75 µM (inactive) | 55.5 µM (inactive)
C[C@H]1C2Cc3cc(N)ccc3[C@@]1(C)CCN2CCc1ccccc1 | 29.4 µM (inactive) | 64.4 µM (inactive) | 33.2 µM (inactive) | 25.2 µM | 28.9 µM (inactive) | 41.9 µM (inactive) | 28.8 µM (inactive) | 20.2 µM (inactive) | > 100 µM (inactive) | 20.4 µM (inactive) | 17.7 µM (inactive) | 58.7 µM (inactive) | 15.9 µM (inactive) | 74.6 µM (inactive) | 85.1 µM (inactive) | 19.3 µM (inactive) | 64.7 µM (inactive) | 31.6 µM (inactive) | 30.7 µM (inactive) | 52 µM (inactive)
Oc1ccccc1/C=N/c1ccc(-c2nc3ccccc3[nH]2)cc1 | > 100 µM (inactive) | > 100 µM (inactive) | 22.5 µM (inactive) | 29.6 µM | 25.2 µM (inactive) | 28.4 µM (inactive) | 43.2 µM (inactive) | > 100 µM (inactive) | 40.5 µM (inactive) | 21.3 µM (inactive) | 93.3 µM (inactive) | > 100 µM (inactive) | > 100 µM (inactive) | > 100 µM (inactive) | 42.1 µM (inactive) | 44.7 µM (inactive) | 90.2 µM (inactive) | 10.4 µM (inactive) | 47.8 µM (inactive) | 63.1 µM (inactive)
Cc1[nH]n(C2=NCCN2)c(=O)c1C | > 100 µM (inactive) | > 100 µM (inactive) | > 100 µM (inactive) | > 100 µM | > 100 µM (inactive) | > 100 µM (inactive) | > 100 µM (inactive) | > 100 µM (inactive) | > 100 µM (inactive) | > 100 µM (inactive) | > 100 µM (inactive) | > 100 µM (inactive) | > 100 µM (inactive) | > 100 µM (inactive) | 89.5 µM (inactive) | > 100 µM (inactive) | > 100 µM (inactive) | > 100 µM (inactive) | > 100 µM (inactive) | > 100 µM (inactive)
O=C1Nc2ccc(Br)cc2/C1=N/Nc1ccccc1[N+](=O)[O-] | 28 µM (inactive) | 14.2 µM (inactive) | 12.5 µM (inactive) | 20.5 µM | 33.2 µM (inactive) | 0.261 µM (active) | 16.6 µM (inactive) | 15.2 µM (inactive) | 1.92 µM (inactive) | 42.9 µM (inactive) | 13.6 µM (inactive) | 13.6 µM (inactive) | 10.7 µM (inactive) | 12.7 µM (inactive) | 15.8 µM (inactive) | 10.2 µM (inactive) | 25 µM (inactive) | 29.9 µM (inactive) | 13.3 µM (inactive) | 16.9 µM (inactive)
CCCCCCCCCCOCCOCCOCCOCCCCC(O)CCCCCCCC1=C[C@H](C)OC1=O (stereo partly drawn) | 13.6 µM (inactive) | 14.1 µM (inactive) | 2.79 µM (inactive) | 12.7 µM | 0.863 µM (active) | 14.4 µM (inactive) | 4.02 µM (inactive) | 4.98 µM (inactive) | 14.1 µM (inactive) | 2.83 µM (inactive) | 19.6 µM (inactive) | 10.9 µM (inactive) | 16.2 µM (inactive) | 15.7 µM (inactive) | 11.8 µM (inactive) | 0.671 µM (active) | 12.1 µM (inactive) | 8.39 µM (inactive) | 9.14 µM (inactive) | 7.78 µM (inactive)
COc1ccc(/C=N\N(C)Cc2cccc3ccsc23)cc1 | > 100 µM (inactive) | > 100 µM (inactive) | > 100 µM (inactive) | 92.9 µM | > 100 µM (inactive) | > 100 µM (inactive) | 54.8 µM (inactive) | > 100 µM (inactive) | > 100 µM (inactive) | 46.8 µM (inactive) | > 100 µM (inactive) | > 100 µM (inactive) | 33.6 µM (inactive) | > 100 µM (inactive) | > 100 µM (inactive) | 90.2 µM (inactive) | > 100 µM (inactive) | > 100 µM (inactive) | 48.9 µM (inactive) | > 100 µM (inactive)
CC1CC[C@@]2(OC1)OC1C[C@H]3[C@@H]4CC=C5C[C@@H](OC6OC(CO)C(OC7OC(CO)C(O)C(O)C7O)C(O)C6OC6OC(C)C(O)C(O)C6O)CC[C@]5(C)[C@H]4CC[C@]3(C)C1[C@@H]2C (stereo partly drawn) | 0.611 µM (active) | 0.76 µM (active) | 0.617 µM (active) | 3.52 µM | 0.753 µM (active) | 0.516 µM (active) | 0.466 µM (active) | 0.462 µM (active) | 0.435 µM (active) | 0.434 µM (active) | 0.634 µM (active) | 0.873 µM (active) | 0.643 µM (active) | 1.42 µM (inactive) | 2.07 µM (inactive) | 0.402 µM (active) | 0.624 µM (active) | 0.513 µM (active) | 0.526 µM (active) | 0.48 µM (active)
O=C(NC(Cl)(C(F)(F)F)C(F)(F)F)c1ccc(F)cc1 | > 100 µM (inactive) | > 100 µM (inactive) | > 100 µM (inactive) | > 100 µM | > 100 µM (inactive) | > 100 µM (inactive) | > 100 µM (inactive) | > 100 µM (inactive) | > 100 µM (inactive) | > 100 µM (inactive) | > 100 µM (inactive) | > 100 µM (inactive) | > 100 µM (inactive) | > 100 µM (inactive) | 0.789 µM (active) | > 100 µM (inactive) | > 100 µM (inactive) | > 100 µM (inactive) | > 100 µM (inactive) | > 100 µM (inactive)
CCOC(=O)C1=C(C)N(Cc2ccc(Cl)cc2Cl)C2(O)C(OC)CC(=O)C3C(=O)N(c4ccccc4)C(=O)C132 (stereo not drawn) | 10.8 µM (inactive) | 6.71 µM (inactive) | 0.466 µM (active) | 1.36 µM | 2.24 µM (inactive) | 4.34 µM (inactive) | 1.11 µM (active) | 1.05 µM (active) | 1.38 µM (inactive) | 1.79 µM (inactive) | 10.6 µM (inactive) | 3.33 µM (inactive) | 1.33 µM (inactive) | 2.41 µM (inactive) | < 0.01 µM (active) | 1.57 µM (inactive) | 2.52 µM (inactive) | 0.244 µM (active) | 3.52 µM (inactive) | 4.54 µM (inactive)
Cn1c(C(O)C2(c3cccnc3)SCCCS2)cc2ccccc21 (stereo not drawn) | > 100 µM (inactive) | > 100 µM (inactive) | 84.7 µM (inactive) | > 100 µM | 50.5 µM (inactive) | 30 µM (inactive) | 41.1 µM (inactive) | > 100 µM (inactive) | > 100 µM (inactive) |  | > 100 µM (inactive) | > 100 µM (inactive) | 36.6 µM (inactive) | > 100 µM (inactive) | 73.3 µM (inactive) | 55.5 µM (inactive) | > 100 µM (inactive) | 51.1 µM (inactive) | 53.3 µM (inactive) | 37.2 µM (inactive)
CCc1cn2c(/C=N/N=C(N)N)c(-c3cc(C)c(Cl)cc3Cl)nc2s1 | 1.77 µM (inactive) | 1.27 µM (inactive) | 0.209 µM (active) | 1.62 µM | 1.82 µM (inactive) | 1.69 µM (inactive) | 1.01 µM (active) | 1.35 µM (inactive) | 0.865 µM (active) |  | 1.37 µM (inactive) | 1.26 µM (inactive) | 1.48 µM (inactive) | 1.61 µM (inactive) | 1.55 µM (inactive) | 1.56 µM (inactive) | 1.64 µM (inactive) | 1.4 µM (inactive) | 1.4 µM (inactive) | 1.64 µM (inactive)
